# Target: T1, bovine serum albumin (BSA) (Bos taurus, UniProt P02769)
# T1 construct: gene ALB
# Test: tryptophan fluorescence quenching (Stern-Volmer, double-log plot), […] K; Kb given
# Assay type: binding
# T1 sequence (P02769 25-607): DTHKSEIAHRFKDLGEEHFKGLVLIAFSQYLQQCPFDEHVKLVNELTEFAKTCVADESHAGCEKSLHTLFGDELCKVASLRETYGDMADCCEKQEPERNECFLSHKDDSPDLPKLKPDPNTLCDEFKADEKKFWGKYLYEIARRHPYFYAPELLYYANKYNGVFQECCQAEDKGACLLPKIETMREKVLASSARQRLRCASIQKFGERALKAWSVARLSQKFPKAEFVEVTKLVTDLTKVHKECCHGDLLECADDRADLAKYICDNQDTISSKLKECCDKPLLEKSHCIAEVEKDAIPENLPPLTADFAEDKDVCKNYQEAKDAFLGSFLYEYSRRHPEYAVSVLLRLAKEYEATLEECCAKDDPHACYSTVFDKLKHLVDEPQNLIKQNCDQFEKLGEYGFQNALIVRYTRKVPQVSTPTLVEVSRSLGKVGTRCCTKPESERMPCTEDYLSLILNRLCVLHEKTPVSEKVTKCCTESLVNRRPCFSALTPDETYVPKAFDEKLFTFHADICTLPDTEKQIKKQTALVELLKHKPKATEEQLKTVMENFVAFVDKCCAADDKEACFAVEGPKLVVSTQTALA
row,K b / (×10^5),Substance
1,3.25 (×10^5) (Kb),cis-[Ru(kynu)(dppm)2]PF6 [compound 2]
2,4.77 (×10^5) (Kb),cis-[Ru(quin)(dppm)2]PF6 [compound 1]

# Source: article PMC5549488, “Synthesis, Characterization, Cytotoxic Activity, and Interactions with CT-DNA and BSA of Cationic Ruthenium(II) Complexes Containing Dppm and Quinoline Carboxylates” (Bioinorganic Chemistry and Applications, 2017)
